The values that follow come from patent US10385036B2, “Sulfonamide-substituted indole modulators of RORC2 and methods of use thereof” (Pfizer Inc., priority 2015, dated 2019).

For orientation: IC50 means the point on the concentration scale where inhibition reaches its midpoint.

Test [1] deals with IL-17 production from human Th17 cells. As to the kind of experiment: Assay of IL-17 production from human Th17 cells. It counts as cell-based. The settings on record: 144 h. On the procedure: The activity of compound of the invention can be also be determined by an IL-17 production from human Th17 cells assay. In general, this assay measures blockade of IL-17 production, the signature cytokine of T helper 17 (Th17) cells, by compounds. Purified human CD4+ T cells are stimulated with anti-CD3+anti-CD28 and incubated with a cytokine cocktail that induce their differentiation into Th17 in the absence or presence of various concentrations of compound. After 6 days, IL-17A concentration is measured in the cell culture supernatant with an ELISA kit (MSD).
Preparation of human CD4+ T cells. CD4+ T cells were purified from buffy coats from healthy donors (obtained from Massachusetts General Hospital) by negative selection the following procedure: Mixing 25 mL of blood with 1 mL of Rosette Sep CD4+ T cell enrichment cocktail (StemCell Technologies) followed by application of a layer of 14 mL Ficoll Paque Plus (Amersham GE Healthcare) and subsequent centrifugation at 1200 g for 20 min at room temperature. The Ficoll layer was then harvested and washed with phosphate saline buffer containing 2% (v/v) fetal bovine serum and cells were resuspended with RPMI medium containing 10% (v/v) fetal bovine serum and 10% (v/v) DMSO, frozen and kept in LN2 until used.
[…] Serial dilutions of compounds of the invention are prepared at 10× final concentration in X-Vivo15 medium containing 3% (v/v) DMSO.
On the second day of the assay, a 384-well tissue culture plate was coated with 10 μg/mL anti-hCD3 (eBioscience) at 50 μL/well. After 2 hr at 37° C., the supernatant is discarded and the coated plates are kept in a sterile tissue culture hood.
The cytokine plus anti-CD28 cocktail with CD4+ cells is prepared such that the cocktail is diluted 10-fold and cell density is 0.22×10^6/mL. The mixture is incubated 1 hr at 37° C.
90 μL (20,000 cells) dispensed per well in the anti-hCD3 coated plate prepared as noted above.
10 μL 10× compound is added per well (final DMSO=0.3%) from the compound plate that was previously prepared, followed by 6 days of incubation in a tissue culture vessel in a humidified chamber at 37° C. and 5% CO2.
Measurement is carried out in a Sector Imager 6000 by the same manufacturer. Signal units from the instrument are converted to pg/mL using a calibration curve with known amounts of IL-17A. IC50 values of test compounds (Table 2) are determined by the non-linear regression analysis of dose response curves.

The target of test [2] is RORC2 ligand binding domain (6-His-RORC2 LBD) (Homo sapiens (Human), UniProt P51449). As to the kind of experiment: Assay of co-activator recruitment by TR-FRET. It is filed as biochemical. Particulars: 6-His-RORC2 LBD / biotin-coactivator peptide SRC1-2 interaction, 3 hr room temperature. As for the experimental part:
The activity of compound of the invention can be determined by a co-activator recruitment by TR-FRET (time-resolved fluorescence resonance energy transfer) assay. […] When receptor and coactivator are bound to each other, upon shining light at 337 nm on the sample, the Europium emits fluorescence that excites APC due to close proximity (FRET) and this signal is measured at 665 nm. Due to the long lasting fluorescence emission of Europium, the non-specific, short-lived fluorescence is time-resolved (TR) from the fluorescence of interest. Inhibitors of the interaction of receptor and coactivator peptide are detected by a decrease in TR-FRET signal.
Specifically, in one embodiment the aforementioned assay was performed as outlined below. The assay was carried out in black polystyrene, 384-well plates in a total assay volume of 50.5 μL. The assay buffer contained 50 mM TRIS-HCL pH 7.5, 1 mM NaCl, 2 mM MgCl2, 0.5 mg/mL bovine serum albumin, and 5 mM dithiothreitol.
(In general: Time-resolved FRET reads energy transfer from a long-lived donor to a nearby acceptor.)

[3] abbreviates: IL-17A in supernatant by ELISA (MSD) after 6 days, human CD4+ T cells differentiated into Th17, read-out: IC50.

Where two headings read alike, the source gives them in different places.

Sequence of RORC2 ligand binding domain (6-His-RORC2 LBD) (P51449 269-508): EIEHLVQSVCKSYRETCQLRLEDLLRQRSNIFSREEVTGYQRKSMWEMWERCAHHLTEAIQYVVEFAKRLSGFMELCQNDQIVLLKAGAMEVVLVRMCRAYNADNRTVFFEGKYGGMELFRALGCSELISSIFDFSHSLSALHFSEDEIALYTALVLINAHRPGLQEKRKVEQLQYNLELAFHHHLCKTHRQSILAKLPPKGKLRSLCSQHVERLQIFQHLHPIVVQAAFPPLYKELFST

On to `C[C@H]1CN(C(=O)C2CCCC2)CC[C@H]1c1cn(C)c2ccc(NS(=O)(=O)c3ccc(F)cc3)cc12` (single isomer, unassigned) [Example 3], for which, in test [1] (Homo sapiens, CD4+ T), 121 nM corresponded to half-maximal inhibition (IC50).
Same read-out and setting: as for `C[C@@H]1CN(C(=O)C2CCCC2)CC[C@@H]1c1cn(C)c2ccc(NS(=O)(=O)c3ccc(F)cc3)cc12` (single isomer, unassigned) [Example 4], the figure is 137 nM.
On to `CC(C)C(=O)N1CC[C@@H](c2cn(C)c3ccc(NS(=O)(=O)c4ccc(F)cc4)cc23)[C@@H](C)C1` (single isomer, unassigned) [Example 5], for which the results for the IC50 in test [2] and in test [1] (setting [3]) were 5.1 nM and 90.3 nM, respectively.
For `CC(C)C(=O)N1CC[C@@H](c2cn(C)c3ccc(NS(=O)(=O)c4ccc(F)cc4)cc23)CC1(C)C` (single isomer, unassigned) [Example 18], in that order: 7 nM and 19 nM.
As for `Cn1cc([C@@H]2CCN(C(=O)C3CCCC3)C(C)(C)C2)c2cc(NS(=O)(=O)c3ccc(F)cc3)ccc21` (single isomer, unassigned) [Example 19], the figures for the IC50 in test [2] and in test [1] (setting [3]) were 3.7 nM and 191 nM, respectively.
For `Cc1nn(C)c(C)c1S(=O)(=O)Nc1ccc2c(c1)c([C@@H]1CCN(C(=O)[C@H](C)C3CCCC3)C[C@@H]1C)cn2C` (single isomer, unassigned) [Example 32], in that order: 2.5 nM and 3.3 nM.
Take `CCOc1ccccc1S(=O)(=O)Nc1ccc2c(c1)c([C@@H]1CCN(C(=O)[C@H](C)C3CCCC3)C[C@@H]1C)cn2C` (single isomer, unassigned) [Example 33]: the IC50 in test [2] was 1.1 nM; in test [1] (setting [3]), 8.4 nM.
`C[C@@H](C(=O)N1CC[C@@H](c2cn(C)c3ccc(NS(=O)(=O)c4ccccc4F)cc23)[C@@H](C)C1)C1CCCC1` (single isomer, unassigned) [Example 34] displayed a concentration for half-maximal inhibition (IC50) in test [1] (Homo sapiens, CD4+ T) of 4.2 nM.
Still for that read-out and setting: as for `Cc1ccc(F)c(S(=O)(=O)Nc2ccc3c(c2)c([C@@H]2CCN(C(=O)[C@H](C)C4CCCC4)C[C@@H]2C)cn3C)c1` (single isomer, unassigned) [Example 35], the figure is 8.4 nM.
In the case of `C[C@H]1CN(C(=O)[C@H](C)C(C)(C)C)CC[C@H]1c1cn(C)c2ccc(NS(=O)(=O)c3ccc(F)cc3)cc12` [Example 1, 4-fluoro-N-(1-methyl-3-((3R,4R)-3-methyl-1-((R)-2,3,3-trimethylbutanoyl)piperidin-4-yl)-1H-indol-5-yl)benzenesulfonamide], the 50% inhibitory concentration (IC50) in test [2] amounted to 8.2 nM; in test [1] (setting [3]) it was 13.5 nM.
For `C[C@@H](C(=O)N1CC[C@@H](c2cn(C)c3ccc(NS(=O)(=O)c4ccc(F)cc4)cc23)[C@@H](C)C1)C1CCCC1` [Example 2, N-(3-((3R,4R)-1-((R)-2-cyclopentylpropanoyl)-3-methylpiperidin-4-yl)-1-methyl-1H-indol-5-yl)-4-fluorobenzenesulfonamide], the IC50 in test [1] (Homo sapiens, CD4+ T) worked out at 4.8 nM.
On to `Cn1cc(C2CCN(C(=O)c3ccns3)CC2)c2cc(NS(=O)(=O)c3ccc(F)cc3)ccc21` [Example 6, 4-fluoro-N-(3-(1-(isothiazole-5-carbonyl)piperidin-4-yl)-1-methyl-1H-indol-5-yl)benzenesulfonamide], for which the IC50 in test [2] was 75.9 nM; in test [1] (setting [3]) it was 276 nM.
Regarding `C[C@@H](C(=O)N1CCC(c2cn(C)c3ccc(NS(=O)(=O)c4ccc(F)cc4)cc23)CC1)C1CCCC1` [Example 7, (R)-N-(3-(1-(2-cyclopentylpropanoyl)piperidin-4-yl)-1-methyl-1H-indol-5-yl)-4-fluorobenzenesulfonamide], the values for the IC50 in test [2] and in test [1] (setting [3]) were 4.5 nM and 28.1 nM, respectively.
With `Cn1cc(C2CCN(C(=O)C3CC3)CC2)c2cc(NS(=O)(=O)c3ccc(F)cc3)ccc21` [Example 8, N-(3-(1-(cyclopropanecarbonyl)piperidin-4-yl)-1-methyl-1H-indol-5-yl)-4-fluorobenzenesulfonamide], the half-maximal inhibitory concentration (IC50) was 17.1 nM in test [2] and 184 nM in test [1] (setting [3]).
In test [1] (Homo sapiens, CD4+ T), `C[C@@H](C(=O)N1CCC(c2cn(C)c3ccc(NS(=O)(=O)c4ccc(F)cc4)cc23)CC1)C(C)(C)C` [Example 10, (R)-4-fiuoro-N-(1-methyl-3-(1-(2,3,3-trimethylbutanoyl)piperidin-4-yl)-1H-indol-5-yl)benzenesulfonamide] gave an IC50 of 29 nM.
On to `Cn1cc(C2CCN(C(=O)C3CCCCC3)CC2)c2cc(NS(=O)(=O)c3ccc(F)cc3)ccc21` [Example 14, N-(3-(1-(cyclohexanecarbonyl)-piperidin-4-yl)-1-methyl-1H-indol-5-yl)-4-fluorobenzenesulfonamide], for which the IC50 in test [1] (Homo sapiens, CD4+ T) came out at 221 nM.
In test [1] (Homo sapiens, CD4+ T), `C[C@H]1C[C@@H](c2cn(C)c3ccc(NS(=O)(=O)c4ccc(F)cc4)cc23)CCN1C(=O)C1CCCC1` [Example 20, N-(3-((2S,4S)-1-(cyclopentanecarbonyl)-2-methylpiperidin-4-yl)-1-methyl-1H-indol-5-yl)-4-fluorobenzenesulfonamide] had a concentration for half-maximal inhibition (IC50) of 633 nM.
Still for that read-out and setting: the result for `C[C@H]1C[C@H](c2cn(C)c3ccc(NS(=O)(=O)c4ccc(F)cc4)cc23)CCN1C(=O)C1CCCC1` [Example 21, N-(3-((2S,4R)-1-(cyclopentanecarbonyl)-2-methylpiperidin-4-yl)-1-methyl-1H-indol-5-yl)-4-fluorobenzenesulfonamide] reads 88.7 nM; that for `CC(C)C(=O)N1CCC(c2cn(C)c3ccc(NS(=O)(=O)c4ccc(F)c(O)c4)cc23)CC1` [Example 23, 4-fluoro-3-hydroxy-N-(3-(1-isobutyrylpiperidin-4-yl)-1-methyl-1H-indol-5-yl)benzenesulfonamide], 1460 nM; that for `CC(C)C(=O)N1CCC(c2cn(C)c3ccc(NS(=O)(=O)c4ccc(F)c(O[C@@H]5CCOC5)c4)cc23)CC1` [Example 24, (R)-4-fluoro-N-(3-(1-isobutyrylpiperidin-4-yl)-1-methyl-1H-indol-5-yl)-3-((tetrahydrofuran-3-yl)oxy)benzenesulfonamide], 69.5 nM.
The same measure, in the same setting: the result for `Cc1ccc(S(=O)(=O)Nc2ccc3c(c2)c(C2CCN(C(=O)[C@H](C)C(C)(C)C)CC2)cn3C)cc1` [Example 25, (R)-4-methyl-N-(1-methyl-3-(1-(2,3,3-trimethylbutanoyl)piperidin-4-yl)-1H-indol-5-yl)benzenesulfonamide] reads 10.6 nM; that for `CCOc1ccccc1S(=O)(=O)Nc1ccc2c(c1)c(C1CCN(C(=O)[C@H](C)C(C)(C)C)CC1)cn2C` [Example 27, (R)-2-ethoxy-N-(1-methyl-3-(1-(2,3,3-trimethylbutanoyl)piperidin-4-yl)-1H-indol-5-yl)benzenesulfonamide], 16 nM; that for `C[C@@H](C(=O)N1CCC(c2cn(C)c3ccc(NS(=O)(=O)c4ccccc4F)cc23)CC1)C(C)(C)C` [Example 28, (R)-2-fluoro-N-(1-methyl-3-(1-(2,3,3-trimethylbutanoyl)piperidin-4-yl)-1H-indol-5-yl)benzenesulfonamide], 11.4 nM.
In test [1] (Homo sapiens, CD4+ T), `C[C@@H](C(=O)N1CCC(c2cn(C)c3ccc(NS(=O)(=O)c4ccccc4)cc23)CC1)C(C)(C)C` [Example 29, (R)-N-(1-methyl-3-(1-(2,3,3-trimethylbutanoyl)piperidin-4-yl)-1H-indol-5-yl)benzenesulfonamide] displayed a concentration for half-maximal inhibition (IC50) of 28.5 nM.
